Data as given in patent publication US8455548B2, “Method of treating sensorimotor disorders with alpha-2 adrenergic receptor agonists” (Allergan, Inc., priority 2007, dated 2013).
Marks after values point to notes of the source that are not given here.

Assays:
[1] = tested on: amphetamine-induced stereotypy; assay: Amphetamine-induced stereotypy (open field locomotor behavior); type: in vivo, C57B/6 male mice; settings: for AMBULATIONS: indicative of hyperactivity; for FINE MOVEMENTS: scored 60 min post-amphetamine, indicative of stereotypy; for inhibition of amphetamine-induced stereotypy (in words): high-dose psychostimulant administration
Experimental: C57B/6 male mice were placed in an open field apparatus and allowed to habituate for 15-30 minutes. Compounds A or B were administered PO at 0, +15, or +30 minutes relative to amphetamine (8 mg/kg) administration (Compound B was also administered 15 minutes pre-amphetamine), and locomotor behavior was scored for an additional 60 minutes post-amphetamine. Amphetamine was administered IP. Locomotion was separated into “fine movements” (indicative of stereotypy) and “ambulations” (indicative of hyperactivity).
Amphetamine induced stereotypy. C57B/6 male mice were placed in an open field apparatus and allowed to habituate for 15-30 minutes. Compounds A or B were administered at 0, +15, or +30 minutes relative to amphetamine (8 mg/kg) administration (Compound B was also administered 15 minutes pre-amphetamine), and locomotor behavior was scored for an additional 60 minutes post-amphetamine. Locomotion was separated into “fine movements” (indicative of stereotypy) and “ambulations” (indicative of hyperactivity).

[2] = tested on: PPI disrupted by psychostimulants; assay: Prepulse inhibition (PPI) of the startle response disrupted by psychostimulants; type: in vivo, Male Sprague-Dawley rats; settings: for % PPI PP3: pre-pulse 3 dB above background; for % PPI PP6: pre-pulse 6 dB above background; for % PPI PP12: pre-pulse 12 dB above background
Experimental: Male Sprague-Dawley rats were treated with Drug 1 (IP) followed 20 minutes later by Drug 2 (IP or SC as indicated in the methods). Ten minutes following administration of Drug 2 (except in the case of apomorphine where animals were immediately tested post-apomorphine), rats were placed in the startle chamber and allowed 5 minutes to acclimate with 65-dB background white noise. The acclimation period was followed by a ˜15 minute test session during which time rats were presented with 40 ms 120 dB startle pulses alone or preceded 100 ms by a pre-pulse 3, 6, or 12 dB above background. These four types of active stimuli were presented in pseudorandom order along with no-stimulation trials to assess baseline activity throughout testing. An average of 20 s separated each trial type. The maximum startle magnitude was measured for every trial type. PPI for each animal was calculated as the percentage startle magnitude to the pre-pulse+pulse or no-stimulation trials relative to the pulse-alone startle magnitude. * and ** indicate differences relative to vehicle+vehicle-treated animals (P<0.05 and P<0.01, respectively).
Prepulse inhibition of the startle response. Sprague Dawley male rats (˜250 g-300 g) are used (n=8/group). Rats are administered drug 1 (vehicle, Compound A, Compound B, or clonidine) followed 20 minutes later by amphetamine (2 mg/kg, s.c.), apomorphine (0.5 mg/kg s.c), PCP (2 mg/kg i.p.) or vehicle (0.9% NaCl, s.c.). Either immediately (apomorphine) or 10 minutes (amphetamine, PCP, or vehicle) following injection of drug 2, animals are placed in the SR-Lab startle chamber (San Diego Instruments, San Diego Calif.). Each rat is acclimated to the chamber for 5 minutes with 65 dB background noise. This acclimation period is followed by a ˜15 minute PPI test session where rats are presented with 120 dB startle pulses without a pre-pulse or pulses preceded by a pre-pulse of 3, 6, or 12 dB above background noise. These active stimuli are presented in pseudorandom order along with no-sound trials, with an average of 20 sec separating each trial (range 5-27 seconds). A sensor in the chamber records the startle magnitude following all stimuli presented. % PPI represents the percentage startle magnitude to the pre-pulse+pulse or no-stim trials relative to the pulse-alone startle magnitude.
The alpha 2B compounds were administered i.p. or p.o., PCP was administered i.p., and apomorphine and amphetamine were administered s.c.

alpha-2A receptor = target: T1, alpha-2A receptor (Homo sapiens, UniProt P08913); assay: Alpha-adrenergic receptor activation (efficacy relative to brimonidine, e.g. RSAT); type: cell-based; settings: lacks significant activity = less than 40% of the efficacy of brimonidine at the alpha-2A receptor subtype
T1 sequence (P08913 1-465): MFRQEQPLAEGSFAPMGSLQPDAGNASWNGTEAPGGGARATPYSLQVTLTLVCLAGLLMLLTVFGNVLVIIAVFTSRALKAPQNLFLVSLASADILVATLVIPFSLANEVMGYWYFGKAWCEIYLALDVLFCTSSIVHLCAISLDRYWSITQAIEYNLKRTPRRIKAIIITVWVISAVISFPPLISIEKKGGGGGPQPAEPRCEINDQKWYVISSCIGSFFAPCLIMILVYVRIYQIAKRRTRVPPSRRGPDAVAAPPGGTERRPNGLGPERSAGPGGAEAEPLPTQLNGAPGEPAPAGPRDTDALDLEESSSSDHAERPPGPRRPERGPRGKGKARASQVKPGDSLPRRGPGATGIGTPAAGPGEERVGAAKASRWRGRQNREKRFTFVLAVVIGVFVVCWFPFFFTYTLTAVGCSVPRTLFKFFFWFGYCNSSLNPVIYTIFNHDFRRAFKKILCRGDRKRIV
From the text: The methods of the present invention use alpha-2 agonists lacking significant activity at the alpha-2A receptor subtype. An agonist lacks significant alpha-2A receptor activity if the agonist has less than 40% of the efficacy of brimonidine at the alpha-2A receptor subtype. Compounds of the invention include, therefore, alpha-2B receptor agonists lacking significant alpha-2A activity; alpha 2B/2C receptor agonists lacking significant alpha-2A activity; and alpha-2C receptor agonists lacking significant alpha-2A activity.
Efficacy, also known as intrinsic activity, is a measure of maximal receptor activation achieved by a compound and can be determined using any accepted assay of alpha-adrenergic receptor activation, such as a cAMP or Receptor Selection and Amplification Technology (RSAT). […]
The RSAT assay measures receptor-mediated loss of contact inhibition resulting in selective proliferation of receptor-containing cells in a mixed population of confluent cells. The increase in cell number is assessed with an appropriate detectable marker gene such as beta-galactosidase, if desired, in a high throughput or ultra high throughput assay format. […]
As an example, an RSAT assay can be performed essentially as follows. […] The EC50 and maximal effect (i.e., efficacy) of each drug at each receptor is determined.

[3] = compound PO at 0 min post-amphetamine (8 mg/kg IP)
[4] = compound PO at 15 min post-amphetamine (8 mg/kg IP)
[5] = compound PO at 30 min post-amphetamine (8 mg/kg IP)
[6] = Drug 1 30 ug/kg, Drug 2 Apo (0.5 mg/kg)
[7] = Drug 1 30 ug/kg, Drug 2 PCP (2 mg/kg)
[8] = Drug 1 100 ug/kg, Drug 2 Amph (2 mg/kg)
[9] = Drug 1 0.03 mg/kg, Drug 2 Amph (2 mg/kg)
[10] = compound PO at -15 min relative to amphetamine (8 mg/kg IP)
[11] = Drug 1 10 ug/kg, Drug 2 Amph (2 mg/kg)
[12] = Drug 1 30 ug/kg, Drug 2 Amph (2 mg/kg)

SMILES	AMBULATIONS [1, 3]	FINE MOVEMENTS [1, 3]	AMBULATIONS [1, 4]	FINE MOVEMENTS [1, 4]	AMBULATIONS [1, 5]	FINE MOVEMENTS [1, 5]	inhibition of amphetamine-induced stereotypy (in words) [1]	% PPI PP3 [2, 6] [%]	% PPI PP6 [2, 6] [%]	% PPI PP12 [2, 6] [%]	% PPI PP3 [2, 7] [%]	% PPI PP6 [2, 7] [%]	% PPI PP12 [2, 7] [%]	% PPI PP3 [2, 8] [%]	% PPI PP6 [2, 8] [%]	% PPI PP12 [2, 8] [%]	alpha-2A receptor activity (in words) (alpha-2A receptor)	other results
OCCNC(=S)NCc1cccc(Cl)c1F [Compound A]	6338.0 ± 714.1	810.1 ± 112.5^⋄	14056.6 ± 708.7	1312.9 ± 205.2^⋄	7494.6 ± 612.3	2581.3 ± 359.1	effectively inhibit stereotypy	38.5 ± 7.7	53.8 ± 6.2	58.9	40.2 ± 7.5	50.6 ± 5.5	62.9	38.6 ± 7.1	50.2 ± 4.7	68.5	lack significant alpha-2A receptor activity	restoration of PPI disrupted by psychostimulants (in words) ([2]; amphetamine, apomorphine, and phencyclidine): significantly inhibited the disruption of PPI
Clc1cccc(Cl)c1N=C1NCCN1 [Clonidine, reference compound]								20.0 ± 10.6	31.5 ± 11.0	24.5	31.7 ± 13.5	30.1 ± 13.1	53.7					% PPI PP3 [2, 9]: 21.8 ± 9.1%; % PPI PP6 [2, 9]: 35.5 ± 8.6%; % PPI PP12 [2, 9]: 51.3%
O=C1c2ccccc2CC[C@H]1Cc1c[nH]c(=S)[nH]1 [Compound B]	9954.8 ± 1042.9	736.7 ± 103.4^⋄	7226.2 ± 457.3	1096.3 ± 79.2^⋄	8453.8 ± 461.7	1284.8 ± 48.8^⋄	effectively inhibit stereotypy							34.5 ± 5.7	45.3 ± 7.4	67.0	lack significant alpha-2A receptor activity	AMBULATIONS [1, 10]: 7258.8 ± 672.4; FINE MOVEMENTS [1, 10]: 937.3 ± 47.3^⋄; % PPI PP3 [2, 11]: 28.2 ± 7.4%; % PPI PP6 [2, 11]: 30.9 ± 6.2%*; % PPI PP12 [2, 11]: 46.9%; % PPI PP3 [2, 12]: 25.3 ± 9.2%; % PPI PP6 [2, 12]: 48.6 ± 5.3%; % PPI PP12 [2, 12]: 60.0%
